According to patent EP0316117A1 (priority 1987, dated 1989):

Key:
Parainfluenza virus = Parainfluenza virus pre-incubated with compound, grown in fertilized hen eggs, hemagglutination read-out; type: cell-based; set-up: key: -: undetectable; ++++: indicative of hemagglutination produced by virus grown under control conditions
Description: The effectiveness of certain novel compounds was tested against Parainfluenza virus which was grown in fertilized hen eggs as determined by the method of Haywood, J. of Mol. Biol., 83, 427 (1974). The virus was at titer of 10^5 to 10^6 was incubated in the presence of 10 ug/ml or 100 u^g/ml of one of the four compounds at 37° C for 2 hours. The mixtures of the virus and anti-viral compound were diluted to a final concentration of 10-^7 then injected into 9-day old fertilized hen eggs using 5 to 6 eggs for each dilution and incubated at 37° C for 48 hours. After the incubation period, a drop of amniotic fluid from the eggs was put on mirror-glass and mixed with 2% washed hen erythrocytes. Appearance of hemagglutination indicated the presence of virus in the egg. LDso was calculated from the results. The following Table 1 presents the results that were obtained. The virus concentrations ranged from -(undetectable) to + + + + (indicative of hemagglutination produced by virus grown under control conditions).

Sendai virus = Sendai virus assay (method as described for Parainfluenza); type: cell-based; settings: reduction in the virus titer compared to control
[1] = compound 100 µg/ml, Virus Concentrations 10
[2] = compound 100 µg/ml, Virus Concentrations 10^2
[3] = compound 100 µg/ml, Virus Concentrations 10^3

Substance	hemagglutination (presence of virus in the egg) (Parainfluenza virus; compound 10 µg/ml, Virus Concentrations 10)	hemagglutination (presence of virus in the egg) (Parainfluenza virus; compound 10 µg/ml, Virus Concentrations 10^2)	hemagglutination (presence of virus in the egg) (Parainfluenza virus; [1])	hemagglutination (presence of virus in the egg) (Parainfluenza virus; [2])	hemagglutination (presence of virus in the egg) (Parainfluenza virus; [3])	Virus Titer Reduction (Sendai virus; 1µg/ml)	Virus Titer Reduction (Sendai virus; 10µg/ml)	Virus Titer Reduction (Sendai virus; 50µg/ml)	Virus Titer Reduction (Sendai virus; 100µg/ml)	hemagglutination (presence of virus in the egg) (Parainfluenza virus; compound 10 µg/ml, Virus Concentrations 10^4)
5-Schiff Base of PE and Menadione (Vitamin K3) [PE-M]	-	-	-	-	-					
4-N-Acetyl phosphatidylethanolamine [A-PE]						about 50%	ranged from 75-95%	ranged from 90-99%	100% (virus undetectable)	
N-(1,1-dimethyl 3-oxybutyl phosphatidyl ethanolamine [DMOB-PE]			-	-		less than 10%	ranged from 75-99%	ranged from 90-93%	100% (virus undetectable)	++++
Phosphatidyl benzyl alcohol [P-BA]			-	-	-					
